Experimental data: US11266655B2, “Methods and compositions for treating urea cycle disorders” (Camp4 Therapeutics Corporation, priority 2019, dated 2022)

What was measured:
[1] = test system: OTC; assay: JAK inhibitors at 0.3 and 3 μM in primary human hepatocytes, OTC mRNA fold change; assay type: cell-based; conditions: fold change vs DMSO
Experimental: (§1) Additional small molecules that inhibit JAK1, JAK2, JAK3, or a combination of the JAK proteins were tested in primary human hepatocytes as described in Example 2. JAK inhibitors were tested in triplicate at 0.3 μM and 3 μM. The results are shown as the fold change (mRNA FC) in the mRNA levels of OTC and CPS1 genes after treatment compared to an untreated control (DMSO) and the standard deviation (SD).

[2] = test system: CPS1; assay: JAK inhibitors at 0.3 and 3 μM in primary human hepatocytes, CPS1 mRNA fold change; assay type: cell-based; conditions: fold change vs DMSO
Experimental: as §1

[3] = test system: OTC; assay: JAK1 inhibitor dose titration in hepatocytes of donors A and B, OTC mRNA normalized to B2M; assay type: cell-based, human; conditions: for OTC mRNA FC, Donor A / OTC mRNA FC, Donor B: normalized to B2M
Experimental: (§2) Next, two JAK1 inhibitors were tested at increasing concentrations in a dose titration assy. Hepatocytes from two different donors (A and B) were incubated with the various concentrations of upadacitinib or oclacitinib maleate and harvested for mRNA analysis. OTC and CPS1 mRNA were normalized to house keeping gene B2M gene expression.

[4] = test system: CPS1; assay: JAK1 inhibitor dose titration in hepatocytes of donors A and B, CPS1 mRNA normalized to B2M; assay type: cell-based, human; conditions: for CPS1 mRNA FC, Donor A / CPS1 mRNA FC, Donor B: normalized to B2M
Experimental: as §2

[5] = test system: chromatin domain upstream of the OTC gene; assay: ATAC-seq of the OTC insulated neighborhood in inhibitor-treated hepatocytes; conditions: 17 hours of inhibitor treatment
Experimental: Hepatocytes were seeded overnight, then the serum and other factors were removed. After 2-3 hours, the cells were treated with the compound and incubated overnight. The cells were harvested and the nuclei were prepared for the transposition reaction. […] After 9-12 cycles of PCR amplification, libraries were sequenced on an Illumina HiSeq 2000. PCR was performed using barcoded primers with extension at 72° C. for 5 minutes, PCR, then the final PCR product was sequenced.
All obtained reads from each sample were trimmed using trim galore 0.4.1 requiring Phred score ≥20 and read length ≥30 for data analysis. The trimmed reads were mapped against the human genome (hg19 build) using Bowtie2 (version 2.2.9) with the parameters: -t -q -N 1 -L 25 -X 2000 no-mixed no-discordant. All unmapped reads, non-uniquely mapped reads and PCR duplicates were removed. All the ATAC-seq peaks were called using MACS2 with the parameters --nolambda -nomodel -q 0.01 --SPMR. The ATAC-seq signal was visualized in the UCSC genome browser. ATAC-seq peaks that were at least 2 kb away from annotated promoters (RefSeq, Ensemble and UCSC Known Gene databases combined) were selected as distal ATAC-seq peaks.
The ATAC-seq experiment was done in triplicate.

[6] = test system: CPS1; assay: RNA-seq of compound-treated primary human hepatocytes, CPS1 expression; assay type: cell-based
[7] = test system: OTC; assay: RNA-seq of compound-treated primary human hepatocytes, OTC expression; assay type: cell-based; conditions: for Relative OTC level vs Untreated (±Standard Deviation): triplicate (Table 14)
[8] = test system: ASS1; assay: RNA-seq of compound-treated primary human hepatocytes, ASS1 expression; assay type: cell-based
[9] = test system: ASL; assay: RNA-seq of compound-treated primary human hepatocytes, ASL expression; assay type: cell-based; conditions: for Relative ASL level vs Untreated (±Standard Deviation): triplicate (Table 25, FIG. 17)
[10] = test system: ARG1; assay: RNA-seq of compound-treated primary human hepatocytes, ARG1 expression; assay type: cell-based
[11] = test system: SLC25A15; assay: RNA-seq of compound-treated primary human hepatocytes, SLC25A15 expression; assay type: cell-based; conditions: for Relative SLC25A15 level vs Untreated (±Standard Deviation): primary human hepatocytes, triplicate (Table 24, FIG. 16A-B)
[12] = test system: urea cycle genes; assay: RNA-seq of primary human hepatocytes, compounds that modulate multiple urea cycle-related genes; assay type: cell-based; conditions: primary human hepatocytes, RNA-seq; for Up-regulated Genes: urea cycle-related genes significantly increased (Table 10)
Experimental: To identify small molecules that modulate urea cycle enzymes, primary human hepatocytes were prepared as a monoculture, and at least one small molecule compound was applied to the cells.
RNA-seq was performed to determine the effects of the compounds on the expression of urea cycle enzymes in hepatocytes. Fold change was calculated by dividing the level of expression in the cell system that had been perturbed by the level of expression in an unperturbed system. Changes in expression having a p-value ≤0.05 were considered significant.
Significance was defined as an FPKM ≥1, a log 2 (fold change) ≥0.5, and a q-value of ≤0.05 for selected gene target.

[13] = test system: NAGS; assay type: cell-based, human; conditions: primary human hepatocytes, RNA-seq (Table 6)
[14] = test system: OTC; assay: OTC expression modulated by compounds, OTC/GeoMean of housekeeping genes, DMSO = 1 (Table 3A); assay type: cell-based, human; conditions: 10 uM final concentration
[15] = both donor cell lines (A and B)
[16] = Example 11, relative mRNA vs DMSO
[17] = primary human hepatocytes, RNA-seq
[18] = 0.3 uM, primary human hepatocytes
[19] = 1 uM, primary human hepatocytes
[20] = 3 uM, primary human hepatocytes
[21] = 10 uM, primary human hepatocytes

## oclacitinib maleate
[1]; 0.3 uM
  OTC mRNA FC: 1.32
[1]; 3 uM
  OTC mRNA FC: 3.14
[2]; 0.3 uM
  CPS1 mRNA FC: 1
[2]; 3 uM
  CPS1 mRNA FC: 1.69
[3]; 0.1 uM
  OTC mRNA FC, Donor A: 1.97
  OTC mRNA FC, Donor B: 2.46
[3]; 0.3 uM
  OTC mRNA FC, Donor A: 2.76
  OTC mRNA FC, Donor B: 4.28
[3]; 1 uM
  OTC mRNA FC, Donor A: 4.79
  OTC mRNA FC, Donor B: 5.97
[3]; 3 uM
  OTC mRNA FC, Donor A: 8.92
  OTC mRNA FC, Donor B: 11.00
[3]; 10 uM
  OTC mRNA FC, Donor A: 11.65
  OTC mRNA FC, Donor B: 11.46
[3]; [15]
  OTC mRNA expression, dose titration: dose dependent increase
[4]; 0.1 uM
  CPS1 mRNA FC, Donor A: 1.61
  CPS1 mRNA FC, Donor B: 4.60
[4]; 0.3 uM
  CPS1 mRNA FC, Donor A: 2.37
  CPS1 mRNA FC, Donor B: 4.50
[4]; 1 uM
  CPS1 mRNA FC, Donor A: 3.12
  CPS1 mRNA FC, Donor B: 3.34
[4]; 3 uM
  CPS1 mRNA FC, Donor A: 4.82
  CPS1 mRNA FC, Donor B: 2.57
[4]; 10 uM
  CPS1 mRNA FC, Donor A: 5.99
  CPS1 mRNA FC, Donor B: 1.90
[4]; [15]
  CPS1 mRNA expression, dose titration: dose dependent increase
[5]
  newly accessible chromatin domain upstream of the OTC gene (ATAC-seq): newly accessible chromatin domain

## Cc1cc(-c2nc(-c3ccc(OC(F)(F)F)cc3)no2)nn1Cc1ccnc(N2CCN(C3CC3)CC2)c1 [BAY 87-2243]
[6]; 0.3 uM, primary human hepatocytes, triplicate (Table 20, FIG. 12)
  Relative CPS1 level vs Untreated (±Standard Deviation): 3.32 ± 0.53
[6]; 1 uM, primary human hepatocytes, triplicate (Table 20, FIG. 12)
  Relative CPS1 level vs Untreated (±Standard Deviation): 5.11 ± 1.08
[6]; 3 μM, primary human hepatocytes, triplicate (Table 19, FIG. 11)
  Relative CPS1 level vs Untreated (±Standard Deviation): 1.41 ± 0.06
[6]; 3 uM, primary human hepatocytes, triplicate (Table 20, FIG. 12)
  Relative CPS1 level vs Untreated (±Standard Deviation): 5.48 ± 3.12
[6]; 10 uM, primary human hepatocytes, triplicate (Table 20, FIG. 12)
  Relative CPS1 level vs Untreated (±Standard Deviation): 5.69 ± 2.90
[6]; [16]
  increase in CPS1 gene expression (Tables 19, 20, FIG. 11, 12): greatest increase
[6]; [17]
  CPS1 expression, Fold change (Log 2) vs untreated: 1.81 Log 2
[7]; [18]
  Relative OTC level vs Untreated (±Standard Deviation): 3.33 ± 0.60
[7]; [19]
  Relative OTC level vs Untreated (±Standard Deviation): 5.61 ± 3.28
[7]; [20]
  Relative OTC level vs Untreated (±Standard Deviation): 7.03 ± 3.84
[7]; [21]
  Relative OTC level vs Untreated (±Standard Deviation): 6.18 ± 1.58
[7]; [16]
  increase in OTC gene expression (Table 14, FIG. 6): greatest increase
[8]; 0.3 μM, primary human hepatocytes, triplicate (Table 15, FIG. 7)
  Relative ASS1 level vs Untreated (±Standard Deviation): 2.79 ± 0.22
[8]; 0.3 uM, primary human hepatocytes, triplicate (Table 15, FIG. 8)
  Relative ASS1 level vs Untreated (±Standard Deviation): 2.11 ± 0.33
[8]; 1 μM, primary human hepatocytes, triplicate (Table 15, FIG. 7)
  Relative ASS1 level vs Untreated (±Standard Deviation): 3.10 ± 0.47
[8]; 01 uM, primary human hepatocytes, triplicate (Table 15, FIG. 8)
  Relative ASS1 level vs Untreated (±Standard Deviation): 2.61 ± 0.57
[8]; 3 μM, primary human hepatocytes, triplicate (Table 15, FIG. 7)
  Relative ASS1 level vs Untreated (±Standard Deviation): 2.38 ± 0.01
[8]; 03 uM, primary human hepatocytes, triplicate (Table 15, FIG. 8)
  Relative ASS1 level vs Untreated (±Standard Deviation): 2.87 ± 1.80
[8]; 10 μM, primary human hepatocytes, triplicate (Table 15, FIG. 7)
  Relative ASS1 level vs Untreated (±Standard Deviation): 2.99 ± 0.36
[8]; 10 uM, primary human hepatocytes, triplicate (Table 15, FIG. 8)
  Relative ASS1 level vs Untreated (±Standard Deviation): 2.86 ± 1.48
[8]; [16]
  increase in ASS1 gene expression (Tables 15, 16, FIG. 7, 8): greatest increase
[9]; [18]
  Relative ASL level vs Untreated (±Standard Deviation): 3.02 ± 0.25
[9]; [19]
  Relative ASL level vs Untreated (±Standard Deviation): 7.50 ± 1.10
[9]; [20]
  Relative ASL level vs Untreated (±Standard Deviation): 11.42 ± 6.31
[9]; [21]
  Relative ASL level vs Untreated (±Standard Deviation): 12.28 ± 4.98
[9]; [16]
  increase in ASL gene expression (Table 25, FIG. 17): greatest increase
[9]; [17]
  ASL expression, Fold change (Log 2) vs untreated: 0.58 Log 2
[10]; 0.3 μM, primary human hepatocytes, triplicate (Table 17, FIG. 9)
  Relative ARGI level vs Untreated (±Standard Deviation): 1.36 ± 0.43
[10]; 1 μM, primary human hepatocytes, triplicate (Table 17, FIG. 9)
  Relative ARGI level vs Untreated (±Standard Deviation): 1.98 ± 0.29
[10]; 3 μM, primary human hepatocytes, triplicate (Table 17, FIG. 9)
  Relative ARGI level vs Untreated (±Standard Deviation): 2.06 ± 0.19
[10]; 10 μM, primary human hepatocytes, triplicate (Table 17, FIG. 9)
  Relative ARGI level vs Untreated (±Standard Deviation): 2.03 ± 0.28
[10]; 10 uM, primary human hepatocytes, triplicate (Table 18, FIG. 10)
  Relative ARGI level vs Untreated (±Standard Deviation): 5.64 ± 3.44
[10]; [16]
  increase in ARG1 gene expression (Tables 17, 18, FIG. 9, 10): greatest increase
[10]; primary human hepatocytes, RNA-seq (Table 7)
  Fold change (Log 2) vs untreated, ARG1 expression: 1.09 Log 2
[11]; 0.3 μM
  Relative SLC25A15 level vs Untreated (±Standard Deviation): 2.85 ± 0.23
[11]; 1 μM
  Relative SLC25A15 level vs Untreated (±Standard Deviation): 2.40 ± 0.22
[11]; 3 μM
  Relative SLC25A15 level vs Untreated (±Standard Deviation): 2.89 ± 0.37
[11]; 10 μM
  Relative SLC25A15 level vs Untreated (±Standard Deviation): 2.70 ± 0.19
[11]; [16]
  Increase in SLC25A15 gene expression (qualitative): greatest increase
[12]
  number of urea cycle genes whose expression was significantly up-regulated: three
  Up-regulated Genes: CPS1, ASL, ARG1

## COc1cccc2c1C(=O)c1c(O)c3c(c(O)c1C2=O)C[C@@](O)(/C(CO)=N/NC(=O)CCCCCN1C(=O)C=CC1=O)C[C@@H]3O[C@H]1C[C@H](N)[C@H](O)[C@H](C)O1 [INNO-206 (aldoxorubicin), aldoxorubicin]
[7]; [17]
  OTC expression, Fold change (Log 2) vs untreated: 0.87 Log 2
[8]; primary human hepatocytes, RNA-seq (Table 4)
  Fold change (Log 2) vs untreated, ASS1 expression: 0.58 Log 2
[13]
  Fold change (Log 2) vs untreated, NAGS expression: 1.63 Log 2
[12]
  number of urea cycle genes whose expression was significantly up-regulated: three
  Up-regulated Genes: NAGS, ASS1, OTC
[14]
  Max Value (OTC/GeoMean of HKs; DMSO = 1): 2.36
